{
  "source": "patent US4900727A",
  "about": "“4H-1-benzopyran-4-one compounds which have anti-inflamatory or immunodulating action” (Hoechst Aktiengesellschaft, priority 1986, dated 1990)",
  "key": {"[1]": {"tested_on": "carrageenin-induced paw edema in rats", "test": "Systemic anti-inflammatory action on carrageenin-induced paw edema in rats", "format": "in vivo, male Charles Foster rats", "conditions": "Rattus norvegicus, po; decrease in paw volume, 3 and 6 hours after carrageenin; from dose/response curve; read-out: ED50", "procedure": "Male Charles Foster rats (120-150 g) were fasted for 18 hours, with water ad libitum. The test compound dissolved in distilled water was administered orally. The control group received distilled water. 0/05 ml of 0.5% carrageenin suspension was injected subcutaneously into the plantar region of the left hind paw. Using a Maclab differential volume meter, the paw volume was determined before the carrageenin injection and 3 and 6 hours after the injection. The percentage decrease in paw volume was calculated by the following equation: [formula] The ED50 value was calculated from the dose/response curve. Six animals were used for each group. The results with representative compounds according to the invention and their salts are listed in Table 4, the substituents relating to the following formula Ia: [drawing 11]"}, "[2]": {"tested_on": "reverse passive Arthus reaction (RPA) in rats", "test": "Reverse passive Arthus reaction (RPA) in rats", "format": "in vivo, Charles Foster rats of both sexes", "conditions": "Rattus norvegicus, po, 4 h, one hour before RPA, edema vs untreated control; for inhibition in vivo at 2.5 mg/kg: dose 2.5 mg/kg p.o.; for inhibition in vivo at 5 mg/kg: dose 5.0 mg/kg p.o.; for inhibition in vivo at 20 mg/kg: dose 20.0 mg/kg p.o.", "procedure": "Charles Foster rats of both sexes, weighing 150-180 g, were sorted into groups of six animals each. 24 hours before the initiation of the RPA, the rats were shaved from the mid-dorsal region and fasted overnight. The test compounds were administered orally one hour before inducing the Arthus reaction. The RPA reaction was induced by intradermal injection of 0.1 ml of appropriately diluted rabbit anti-BSA serum. Immediately after the intradermal exposure, each rat received 0.5 ml of 0.4% bovine serum albumin intraveneously. Four hours after the intradermal challenge, each group of animals was killed by cervical dislocation. The full thickness of the skin was removed from the back of each animal, and a 12 mm diameter disk was punched out with a metal punch from the site of the antiserum injection. The wet weight of each skin site was determined as soon as possible. The edema caused by the RPA was measured as the difference (expressed in mg) between the wet weight of the site injected with antibody and that injected with normal rabbit serum. The results are expressed as the percentage inhibition or potentiation of the edema by the compound as compared with the edema induced in the untreated control animals."}},
  "note": "Where a name gives a salt, the structure may show the parent alone.",
  "data": [
    {"smiles": "Cc1cc(=O)c2c(O)cc(O)c(C3CCN(CC4CC4)CC3O)c2o1", "note": "(single isomer, unassigned; (-)) [(-) CH3 H [drawing 12] HCl.H2 O, cis-(-)-5,7-Dihydroxy-2-methyl-8-[4'-(1'-cyclopropylmethyl-3'-hydroxy)-piperidinyl]-4H-1-benzopyran-4-one hydrochloride]", "values": [
      {"measurement": "ED50", "setting": "[1]", "result": 10, "unit": "mg/kg"},
      {"measurement": "inhibition in vivo at 2.5 mg/kg", "setting": "[2]", "result": 23, "unit": "%"},
      {"measurement": "inhibition in vivo at 5 mg/kg", "setting": "[2]", "result": 49.7, "unit": "%"},
      {"measurement": "inhibition in vivo at 20 mg/kg", "setting": "[2]", "result": 74, "unit": "%"}
    ]},
    {"smiles": "CCCc1cc(=O)c2c(O)cc(O)c(C3CCN(C)CC3O)c2o1", "note": "(single isomer, unassigned; (-)) [(-) n-C3 H7 H CH3 HCl.H2 O, cis-(-)-5,7-dihydroxy-2-n-propyl-8-[4'-(3'-hydroxy-1'-methyl)-piperidinyl]-4H-1-benzopyran-4-one]", "values": [
      {"measurement": "ED50", "setting": "[1]", "result": 5.8, "unit": "mg/kg"},
      {"measurement": "inhibition in vivo at 2.5 mg/kg", "setting": "[2]", "result": 42.7, "unit": "%"},
      {"measurement": "inhibition in vivo at 5 mg/kg", "setting": "[2]", "result": 41.3, "unit": "%"},
      {"measurement": "inhibition in vivo at 10 mg/kg", "setting": "[2]; dose 10.0 mg/kg p.o.", "result": 63.7, "unit": "%"},
      {"measurement": "inhibition in vivo at 20 mg/kg", "setting": "[2]", "result": 72.1, "unit": "%"}
    ]}
  ]
}
